row,melting point [°C],SMILES
1,182 to 184,CNC(=O)c1cc(-c2ccc(OC)c(Cl)c2)nn(CC(C)C)c1=O
2,148 to 149,CCOC(=O)COc1ccc(N2CCN(S(=O)(=O)c3ncn(C)c3Cl)CC2)cc1
3,186,COC(=O)Nc1nc2ccc(OS(=O)(=O)c3cccc(OC(F)(F)C(F)F)c3)cc2[nH]1
4,93 to 94,Clc1ccc2c(ccn2C2=CCN(CCC3Cc4ccccc4C3)CC2)c1
5,140,S=C(OCc1ccc(Cl)c(Cl)c1)SC(Cn1ccnc1)c1ccc(Cl)cc1Cl (stereo not drawn)
6,161 to 163,CCOC(=O)c1ccc(-c2ccc(-c3ccccc3O)c(-c3ccc4c(c3)C(C)(C)CCC4(C)C)c2)cc1
7,118,"CC(O)c1ccccc1-c1ccc(C(=O)N2Cc3ccc(C(=O)NCc4cccnc4)n3Cc3ccccc32)cc1 (single isomer, unassigned; (-))"
8,242,CC(=O)N(NC(N)=S)c1ccc([N+](=O)[O-])cc1
9,135 to 137,CCCc1nc2c(N)nc3ccccc3c2n1CCCCCCCCCCCC(=O)NC
10,212 to 214,CC(C)(C)c1cc(-c2nnc(NCCO)s2)cc(C(C)(C)C)c1O
11,108 to 110,Cc1ccc(C(O[Si](C)(C)C(C)(C)C)C(N)=O)cc1 (stereo not drawn)
12,212 to 215,COc1cc(N2CCOCC2)ccc1Nc1nc(Nc2ccc3c(c2)CCC(=O)CC3)ncc1Cl
13,140,COc1cc2c(cc1Nc1ncc(Cl)c(Nc3ccccc3S(=O)(=O)N(C)C)n1)CCN(CC(=O)N1CCN(C)CC1)CC2
14,77 to 82,O=C(NCCO)/C(=C/c1ccc(OC(F)(F)F)cc1)NC(=O)c1ccc(Oc2ccc(Cl)cc2)cc1
15,153 to 155,COC(=O)NC1(c2ccc(C(C)C)cc2OC)C(=O)c2ccccc2C1=O
16,111 to 112,CCN(CC)C(=O)Cc1c(C)n(Cc2ccccc2)c2ccc(OCc3nc4ccccc4s3)cc12
17,105 to 106,O=C1NCC(Cc2ccccc2Cc2ccccc2)O1 (stereo not drawn)
18,146 to 155,CS(=O)(=O)Nn1c(=O)[nH]c2cc([N+](=O)[O-])c(NC3CCCC3)cc2c1=O
19,180,COc1ccc(S(=O)(=O)C2(C(=O)NO)CCN(Cc3ccc(Br)cc3)CC2)cc1
20,> 300,COc1ccc(N2CCN(c3ccc(-n4c(C)c[nH]c4=O)cc3)CC2)cc1
21,198,Cc1cccc2c(=O)nc(-c3ccccn3)sc12

row,melting point [°C],SMILES
1,200,CNC(=O)NCCN1CCC(Nc2nc3ccccc3n2Cc2ccc(C)o2)CC1
2,155 to 156,O=C(Cc1ccc(Cl)c(Cl)c1)N1CCc2occc2C1CO (stereo not drawn)
3,98 to 100,CC(Cc1ccccc1)(NC(=O)OC1CCCCc2ccccc21)C(=O)NCCCCCCCCC(N)=O (stereo not drawn)
4,285,NS(=O)(=O)c1cccc(-c2nc(-c3cnn4c(C(F)(F)F)cc(-c5ccc(C(F)(F)F)cc5)nc34)no2)c1
5,200 to 202,C[Si](C)(C)CCOCn1cc(C#N)c(=O)c2cc([N+](=O)[O-])c(Cl)cc21
6,130 to 131,Cc1ccc2cccc(N(Cc3c(Cl)ccc([N+](=O)[O-])c3Cl)C(=O)OC(C)(C)C)c2n1
7,92.5 to 93,O=C(O)CCCNC(=O)CC1=C(n2nc(-c3c(-c4ccccc4)nn4ccccc34)ccc2=O)CCCC1
8,205 to 208,COc1ccccc1NC(C)C(=O)O (stereo not drawn)
9,139 to 142,CCCCc1nc(C(C)(O)CC)c(C#N)[nH]1 (stereo not drawn)
10,150 to 151,CCOC(=O)C=Cc1ccc2cc(C=CC(=O)OCC)ccc2c1
11,114 to 116,CCCCOc1ccc2c(c1)C(N(C)S(C)(=O)=O)=CC(C)(C)O2
12,43 to 46,c1ccc(-c2coc3cc4c(cc23)CCC4)cc1
13,151 to 153,CN1CCC(c2n[nH]c3ccc(NC(=O)c4ccc(F)cc4)cc23)CC1
14,76 to 78,CC(c1ccccc1)C(C)([N+](=O)[O-])[N+](=O)[O-] (stereo not drawn)
15,80 to 125,CC(=O)NC1CCC(=O)N2CCCC(C(=O)NC(CC(=O)OC(C)(C)C)C(=O)COC(=O)c3c(Cl)cccc3Cl)N2C1=O (stereo not drawn)
16,177 to 178,Cc1ccc(S(=O)(=O)N(c2ccc(Cl)cc2C(N)=O)C(C)C)cc1
17,126 to 128,COCn1c(-c2nc3c(OC)ccc(N4CCOCC4)c3s2)nc2ccc(N3CCOCC3)nc21
18,113,COC(=O)CN1CCCC(Nc2ncc3ncnc(Nc4cccc(Br)c4)c3n2)C1 (stereo not drawn)
19,197 to 198,Cc1ccc2c(c1)Oc1ncc([N+](=O)[O-])cc1C(=O)N2C
20,130 to 131,CSc1ccc(C2OC(=O)NC2O)cc1 (stereo not drawn)
21,157,COC(=O)c1cc([N+](=O)[O-])ccc1-c1c(OC)cccc1OC

row,melting point [°C],SMILES
1,149 to 150,COc1ccc(C2(C#N)CCC(CC(=O)O)CC2)c2c1OCCO2 (stereo not drawn)
2,84 to 85,COC(=O)Cc1cc(N)n(-c2ccccn2)n1
3,224 to 225,CCCCc1csc2ccc3[nH]c4c(c3c12)CNCC4
4,117 to 119,O=C(O)CC(CC(=O)O)Cc1ccc(O)cc1
5,78 to 84,O=C(O)Cc1ccc(OCCNC(=O)C2Cc3ccccc3N2S(=O)(=O)c2ccc(-c3cc(F)ccc3Cl)cc2)cc1 (stereo not drawn)
6,160 to 163,CC(c1ccc(C=Cc2ccccc2)s1)N(O)C(N)=O (stereo not drawn)
7,90 to 92,CCOC(=O)C=Cc1ccc(OCC)c([N+](=O)[O-])c1
8,118 to 119,CC(OC(=O)c1cc(-n2c(=O)cc(C(F)(F)F)n(C)c2=O)ccc1Cl)C1CC1 (stereo not drawn)
9,135,O=C(O)CCc1cccc(CNC(=O)C2Cc3ccccc3N2S(=O)(=O)c2ccc(-c3cccc(C(F)(F)F)c3)cc2)c1 (stereo not drawn)
10,70,O=S1(=O)N(CCCl)c2cccc3c2N1CCC3
11,163 to 165,CC(=O)OCC1OC(OC(C)=O)C(O)C(OC(C)=O)C1OC(C)=O (stereo not drawn)
12,206 to 209,CC1CCCCC1NC(=O)[C@@H](C)NC(=O)[C@@H](N)CC(=O)O (stereo partly drawn)
13,127 to 128,Cc1nc(N2CCN(CCCc3ccccc3)C2=O)sc1C(=O)NCc1cccnc1
14,87,CCOC(=O)C(C#N)=C1CCN(c2ccc(OC)cc2)CC1
15,145,O=C(N1CCOCC1)n1nnc2cc(Cl)c(Cl)cc21
16,117 to 119,CC(C)CC(NC(=O)CCc1ccccc1)C(=O)N[C@@H](Cc1ccccc1)C(=O)CSCc1ccco1 (stereo partly drawn)
17,102,COC(=O)c1ccc(O)c([C@H](CCN(C(C)C)C(C)C)c2ccccc2)c1
18,130 to 135,CC1(C2CCC3C4CCC5CC=CCC5(C)C4C(=O)CC32C)OCCO1 (stereo not drawn)
19,240 to 242,CCCc1nc(C)cc(=O)n1CCOc1ccc(C=C2SC(=O)NC2=O)cc1
20,159 to 160,O=C1NC(=O)C(=Cc2ccc(N3CCC4(CC3)OCCO4)c(F)c2)S1
21,143 to 144,COC(=O)c1cn(-c2ccc3ccccc3c2)cn1

row,SMILES,melting point [°C]
1,CN(C)C1(c2ccccc2)CCC2(OCCc3c2[nH]c2ccccc32)C(F)C1 (stereo not drawn),245 to 247
2,CC1(O)C=CC2C3CCC4=CC(=O)CCC4C3C(c3ccc(-c4ccc(C#N)cc4)cc3)CC21C (stereo not drawn),206
3,c1cc(NC2=NCCO2)c2occc2c1,124 to 126
4,C[C@@H]1N=C(c2ccccc2Cl)c2ccsc2NC1=O,200
5,CN(C)C(c1ccccc1)C1CCCCC1(O)Cc1cccc(F)c1 (stereo not drawn),146 to 147

# From a melting point compilation (Tetko et al.; mined from patent text by program, amines drawn as free bases though some values may be those of a salt)
